Assay results as given in patent US11596613B2, “Compositions and methods for treating cancer” (UNIVERSITY OF IOWA RESEARCH FOUNDATION, priority 2015, dated 2023).

Tested on: A375 xenografts
Test: A375 xenografts in athymic nu/nu mice treated with PLX4720 diet and/or BSO in drinking water
Format: in vivo
Procedure: 2-Mercaptoethanol is a reducing agent that leads to reduction of disulphide bonds to produce thiols. […] The effect of eliminating GSH in vivo was tested by treating mice (Athymic nu/nu) bearing A375 xenografts with rodent diet (AIN-76A) containing PLX4720 ([…], 416 mg/kg of diet) alone and in combination with BSO (15 mM in drinking water). […] Tumor xenografts in mice treated with the AIN-76 diet mixed with PLX4720 were responsive initially, but approximately 80% of these tumors acquired resistance to BRAFi treatment alone within 140 days (i.e., 20% complete responses; FIG. 2). On the contrary, the combination of BSO with PLX4720 produced nearly 90% complete and durable tumor responses (FIG. 4). […] Tumor progression was defined as a 50% increase (approximately a two standard deviation increase) in tumor volume from study initiation.
Female athymic nu/nu mice (age six weeks) were purchased from Envigo (previously Harlan Laboratories) and housed in the Animal Care Facility at The University of Iowa (Iowa City, Iowa). All procedures were approved by The University of Iowa Institutional Animal Care and Use Committee. All mice were naïve to treatments at the time of xenograft. For each xenograft, 1-3×10^6 cells (451LuBR and A375) were implanted subcutaneously in a 1:1 suspension of Matrigel (Corning) and PBS (flank) using a 27-gauge needle. For all in vivo studies, the mice were randomly assigned to experimental groups post-implant. Animals developed tumors within 7-10 days post-implant. Initiation of treatments was standardized to the time that tumor volume ([(longest length)×(smallest length^2)]/2) reached 80-100 mm^3.
The dose and mode of delivery for PBA was determined by analyzing the pharmacokinetics C-14 labeled PBA in mice (FIG. 5). These drugs were administered alone and in combination depending on the experimental group. The mice were monitored for their state of health every day. Tumor volume and animal weights were measured twice per week. Mice were euthanized when the observed state of health reached the endpoint according to the approved IACUC protocol or when the tumor volume reached 1500 mm^3.
Statistics was conducted using the tumor sizes (mm^3) that were obtained periodically throughout the experiments, resulting in repeated measurements for each mouse. Linear mixed effects regression models were used to estimate and compare treatment group-specific tumor growth curves. Pairwise comparisons were performed to identify treatment group differences in the growth curves. The Kaplan-Meier method was used to estimate the survival curves, and group comparisons were made using the log rank test. Mice who developed ulcerations were censored at day of euthanasia. […]

Row | SMILES | complete (and durable) tumor responses (PLX4720 416 mg/kg of diet, alone or with BSO 15 mM in drinking water) [%] | tumors that acquired resistance to BRAFi treatment (within 140 days, PLX4720 416 mg/kg of AIN-76A diet) | tumor growth rate (BSO 15 mM in drinking water, versus untreated controls) | GSH concentrations in tumor samples (mice treated with BSO vs controls)
1 | CCCS(=O)(=O)Nc1ccc(F)c(C(=O)c2c[nH]c3ncc(Cl)cc23)c1F [PLX4720] | 20 | approximately 80% |  | 
2 | CCCCS(=N)(=O)CCC(N)C(=O)O (stereo not shown) [BSO, buthionine sulfoximine] |  |  | No significant difference | significantly lower
